In patent publication US8637493B2, “Methods for treating glioblastoma” (University of Massachusetts, priority 2009, dated 2014):

Tests used:
Assay type in all cases: cell-based, human
[1] = tested on: Hey1; assay: RT-PCR / qRT-PCR of Notch target Hey1 mRNA in neurosphere cultures after DAPT; settings: for decrease of Hey1 mRNA level: 48 hours after treatment, RT-PCR; for Hey1 expression (qRT-PCR): 1 μM DAPT, 48 hours
Procedure: TMZ concentrations for each culture were selected based on previous experiments (Mihaliak et al., Cancer Letts. 296, 168-177 (2010)) DAPT and LY concentrations were chosen for each culture based on the decrease in Hes1 and Hey1 expression. RNA was isolated from the cultures 48 hours after DAPT treatment, and Hes1 and Hey1 cDNA expression levels were analyzed by PCR or qPCR.
RT-PCR and RT-qPCR were performed as follows. Neurosphere cultures were pelleted and tumor tissues from subcutaneous xenografts were broken into a powder using a BioPulverizer (Biospec Products, Inc., Bartlesville, Okla.). RNA was isolated from neurosphere cultures and frozen tumor samples using TRIzol Reagent (Invitrogen, Carlsbad, Calif.), following the manufacturer's protocol. RNA was treated with DNase I, Amplification Grade (Invitrogen, Carlsbad, Calif.). cDNA was made using the SuperScript II Reverse Transcription (RT) Kit with Oligo(dT)12-18 primers (Invitrogen, Carlsbad, Calif.), followed by a 20 minute incubation at 37° C. with RNaseH. PCR was carried out using Taq DNA Polymerase, following the manufacturer's protocol (Invitrogen, Carlsbad, Calif.). Real time qPCR was carried out using QuantiTect SYBR Green (QIAGEN, Valencia, Calif.). Hes1 and β-Actin primers were developed using Primer3 (Rozen and Skaletsky, Methods Mol Biol 2000; 132: 365-86). Hes1 forward primer: 5″ […] 3″ (SEQ ID NO:1) and reverse primer: 5″ […] 3″ (SEQ ID NO:2). β-Actin (RT-PCR) forward primer: 5″[…] 3″ (SEQ ID NO:3) and reverse primer: 5″ […] 3″ (SEQ ID NO:4). β-Actin (qRT-PCR) forward primer: 5″[…] 3″ (SEQ ID NO:5) and reverse primer: 5″ […] (SEQ ID NO:6). Primers for Hey1 (Osipo et al., Oncogene 2008; 27: 5019-32), Notch1 (Lefort et al., Genes Dev 2007; 21: 562-77), Notch2 (O'Neill et al., Am J Pathol 2007; 171: 1023-36), Notch3 (Buchler et al., Ann Surg 2005; 242: 791-800, discussion −1) and Notch4 (Buchler et al., Ann Surg 2005; 242: 791-800, discussion −1) were previously published, RT-PCR products were analyzed on 2% agarose gels. tantification of band intensity for DAPT treated lines was determined using ImageJ (Rasband W S. ImageJ, U.S. National Institutes of Health, Bethesda, Md., USA. 1997-2004). cDNA levels for qRT-PCR products were calculated using the PFAFFL method (Pfaffl, Nucleic Acids Res 2001; 29: e45).

[2] = tested on: GS7-2-pMIG; assay: Neurosphere recovery assay, empty vector GS7-2-pMIG; settings: empty vector control
Procedure: (§1) Neurosphere cultures were dissociated to single cell suspensions by pH dissociation followed by filtration through 40 μm screens. For the neurosphere assay, 3,000 cells/ml of defined medium were seeded in 6-well plates. Immediately after plating, cells were treated with DMSO (Research Organics, Cleveland, Ohio) carrier control, TMZ-only, DAPT-only, or TMZ+DAPT. Additional DAPT was added on days 2 and 4. Neurospheres consisting of 10 or more cells were counted under a light microscope on day 7 for the converted cell lines. Primary lines have a slightly longer doubling time and were counted on day 10. After counting the neurospheres from the initial treatment, 2 ml of fresh defined medium was added to each well. DAPT was also added once more to the DAPT-only and TMZ+DAPT samples, and the cells were incubated for an additional 7 or 10 days. Neurospheres from the recovery period were counted on day 14 or day 20. To analyze secondary neurosphere formation, cells were collected, pelleted and dissociated to a single cell suspension by the pH method. Cells from each well were re-seeded into 6-well plates with 2 ml of defined medium. The number of secondary neurospheres formed by converted cell lines and primary cultures were counted on day 21 or day 30, respectively. All recovery assays were repeated with a minimum of 6 replicate sets of time points. […]

[3] = tested on: U87NS, U373NS, GS7-2 and GS8-26; assay: Neurosphere recovery assay, initial neurospheres, range over all cultures; settings: day 7 or 10
Procedure: (§2) To determine the effects of TMZ plus DAPT neurospheres, cells were plated as previously described (Mihaliak et al., Cancer Letts. 296, 168-177 (2010)). Immediately after plating, cells were treated with DMSO, DAPT-only, LY411,575 (LY)-only TMZ-only, TMZ+DAPT or TMZ+LY. The initial neurospheres were counted on day 7 for the converted cell lines and on day 10 for the slower growing primary lines. Neurosphere recovery was measured on day 14 or 20. The neurospheres were dissociated, re-plated and secondary neurosphere formation was measured on day 21 or 30.
Neurosphere cultures were dissociated to single cell suspensions by pH dissociation followed by filtration through 40 μm screens. For the neurosphere assay, 3,000 cells/ml of defined medium were seeded in 6-well plates. Immediately after plating, cells were treated with DMSO (Research Organics, Cleveland, Ohio) carrier control, TMZ-only, DAPT-only, or TMZ+DAPT. Additional DAPT was added on days 2 and 4. Neurospheres consisting of 10 or more cells were counted under a light microscope on day 7 for the converted cell lines. Primary lines have a slightly longer doubling time and were counted on day 10. […] Neurospheres from the recovery period were counted on day 14 or day 20. […] The number of secondary neurospheres formed by converted cell lines and primary cultures were counted on day 21 or day 30, respectively. […]

[4] = tested on: GS8-26; assay: Neurosphere formation / recovery / secondary neurosphere assay, GS8-26
Procedure: The effect of chemotherapy on neurosphere formation was assayed in glioma neurosphere cultures. Cultures are treated with a single dose of the agent, e.g., TMZ and multiple doses of a GSI, e.g., DAPT to inhibit the Notch pathway. After the Treatment phase, the number of initial spheres (counted about 7 days after TMZ treatment) represents the number of proliferating CSC/progenitors (FIG. 1 for schematic). Recovery (counted 14 days after TMZ treatment) includes enlargement of the initial spheres and new spheres formed when CSC/progenitor cells quiescent as a result of chemotherapy resume cell proliferation. […] The cells used included U87NS, a neurosphere culture converted to neurosphere growth in defined medium from U87MG (an old Swedish line that is grown in conventional serum conditions); GS7-2, GS8-26 and GS6-22 primary neurosphere cultures that were obtained from grade IV GBM patient tumor samples and AS5-15, which was obtained from a grade III anaplastic astrocytoma.
as §2
Neurosphere cultures were dissociated to single cell suspensions by pH dissociation followed by filtration through 40 μm screens. […] Neurospheres consisting of 10 or more cells were counted under a light microscope on day 7 for the converted cell lines. Primary lines have a slightly longer doubling time and were counted on day 10. […] Neurospheres from the recovery period were counted on day 14 or day 20. […] The number of secondary neurospheres formed by converted cell lines and primary cultures were counted on day 21 or day 30, respectively. […]

[5] = tested on: U87NS-pMIG; assay: Neurosphere recovery assay, empty vector U87NS-pMIG; settings: empty vector control
Procedure: as §1

| SMILES | decrease of Hey1 mRNA level ([1]; U87NS, DAPT 1 μM) | Hey1 expression (qRT-PCR) ([1]; U87NS-NICD) | Hey1 expression (qRT-PCR) ([1]; U87NS-pMIG) | decrease of Hey1 mRNA level ([1]; U373NS, DAPT 5 μM) | recovery: increase in neurospheres [2] | decrease of initial neurosphere formation [3] | recovery: increase in the number of neurospheres ([4]; day 20 relative to day 10, DAPT 5 μM) | secondary neurosphere formation, TMZ-only treated culture relative to TMZ+DAPT treated culture ([4]; day 30, P<0.001) | average number of cells per neurosphere capable of self-renewal ([4]; secondary neurospheres divided by recovery neurospheres) | recovery: increase in neurospheres [5] |
| --- | --- | --- | --- | --- | --- | --- | --- | --- | --- | --- |
| C[C@H](NC(=O)Cc1cc(F)cc(F)c1)C(=O)N[C@H](C(=O)OC(C)(C)C)c1ccccc1 [DAPT, N-[N-(3,5-difluorophenacetyl)-L-alanyl]-(S)-phenylglycine t-butyl ester] | 76% | minimal decrease | decreased | 51% | – | – | – | – | – | – |
| Cn1nnc2c(C(N)=O)ncn2c1=O [TMZ, temozolomide] | – | – | – | – | 2.1 fold | 80-98% | 1.6 fold | 25 fold | 31 cells per neurosphere | 1.9 fold |
